Assay [1] concerns HT-29. Kind of assay: Growth inhibition of human HT-29 cells by MTT assay. Format: functional.
The subject of assay [2] is HepG2. Put plainly: Growth inhibition of human HepG2 cells by MTT assay. Format: functional.
Assay [3] has as its system NCI-H460. Kind of assay: Growth inhibition of human NCI-H460 cells by MTT assay. The assay is classed as functional.
Assay [4] concerns Bacillus subtilis. Kind of assay: Antibacterial activity against Bacillus subtilis. The assay is classed as functional, organism-based.
The subject of assay [5] is Candida albicans. Kind of assay: […] activity against Candida albicans. Format: functional, organism-based.
The test system of assay [6] is Staphylococcus aureus. Put plainly: Antibacterial activity against Staphylococcus aureus. The assay is classed as functional, organism-based.
The test system of assay [7] is Pseudomonas aeruginosa. Kind of assay: Antibacterial activity against Pseudomonas aeruginosa. Format: functional, organism-based.
For assay [8], the system named is Escherichia coli. Kind of assay: Antibacterial activity against Escherichia coli. Format: functional, organism-based.
For assay [9], the system named is Streptococcus pneumoniae. Kind of assay: Antibacterial activity against Streptococcus pneumoniae. The assay is classed as functional.
The target in assay [10] is Quinolone resistance protein NorA (Staphylococcus aureus) (UniProt P0A0J7). Kind of assay: Inhibition of NorA in Staphylococcus aureus measured after 1 hr by ethidium bromide staining based agar-cartwheel assay method.
Assay [11] concerns Rattus norvegicus. Put plainly: Anti-inflammatory activity against carrageenan-induced Albino Wistar rat paw edema model assessed as inhibition of rat paw edema at 50 mg/kg, po pretreated for 1 hr followed by carrageenan addition measured after 1 to 4 hrs relative to control. The assay is classed as functional.
Assay [12] concerns MCF7. Kind of assay: Potency index, ratio of doxorubicin IC50 to compound IC50 for human MCF7 cells. The assay is classed as functional.
In assay [13] the test system is MCF7. Kind of assay: Cytotoxicity against human MCF7 cells after 72 hrs by MTT assay. Format: functional, cell-based. Particulars: MCF7, 72 h.
The test system of assay [14] is Rattus norvegicus. Kind of assay: Anti-inflammatory activity against carrageenan-induced Albino Wistar rat paw edema model assessed as inhibition of rat paw edema at 10 mg/kg, po pretreated for 1 hr followed by carrageenan addition measured after 1 to 4 hrs relative to control. Format: functional.
In assay [15] the test system is A-431. Put plainly: Anticancer activity against human A431 cells. The assay is classed as functional, cell-based.
In assay [16] the test system is Jurkat. Put plainly: Anticancer activity against human Jurkat cells. Format: functional, cell-based.
In assay [17] the test system is Human gammaherpesvirus 4. Put plainly: Antiviral activity against Epstein-Barr virus. The assay is classed as functional, organism-based.
Assay [18] relates to Klebsiella pneumoniae. Put plainly: Antibacterial activity against Klebsiella pneumoniae. Format: functional, organism-based.
Assay [19] can be described thus: Antioxidant activity assessed as DPPH radical scavenging activity after 30 mins under dark condition. The assay is classed as functional.
Assay [20] addresses Alpha glucosidase (Homo sapiens, UniProt O43451+P10253+P14410+Q2M2H8). Kind of assay: Inhibition of alpha-glucosidase (unknown origin) using p-nitrophenyl alpha-d-glucopyranoside as substrate preincubated for 15 mins followed by substrate addition measured after 30 mins by spectrophotometric analysis. The assay is classed as protein assay.
The test system of assay [21] is Feline immunodeficiency virus. Kind of assay: Antiviral activity against Feline immunodeficiency virus. Format: functional, organism-based.
Assay [22] relates to Leishmania amazonensis. Put plainly: Antileishmanial activity against Leishmania amazonensis promastigotes. The assay is classed as functional, organism-based.
Assay [23] has as its target 72 kDa type IV collagenase (Homo sapiens, UniProt P08253). Kind of assay: Inhibition of MMP2 catalytic domain (unknown origin) using Ac-PLG-[2-mercapto-4-methylpentanoyl]-LG-OC2H5 as substrate preincubated for 45 to 120 mins followed by substrate addition measured for 30 mins in 1 min time interval.
Assay [24] deals with Staphylococcus epidermidis. Kind of assay: Antibacterial activity against Staphylococcus epidermidis ATCC 12228 by broth microdilution method. Format: functional.
Assay [25] deals with Staphylococcus aureus. Kind of assay: Antibacterial activity against Staphylococcus aureus ATCC 6538 by broth microdilution method. The assay is classed as functional.
In assay [26] the test system is Staphylococcus aureus. Kind of assay: Antibacterial activity against Staphylococcus aureus ATCC 25923 by broth microdilution method. Format: functional.
For assay [27], the system named is MCF7. Kind of assay: Growth inhibition of human MCF7 cells after 48 hrs by SRB assay. Format: functional. Particulars: MCF7, 48 h.
Assay [28] relates to RAW264.7. Put plainly: Anti-inflammatory activity against mouse RAW264.7 cells assessed as inhibition of LPS-induced NO production at 50 ug/ml relative to control. The assay is classed as functional. Further details: scale not given: the % may be the effect or the level left.
In assay [29] the test system is Psilocybe cubensis. Kind of assay: Antifungal activity Psilocybe cubensis. The assay is classed as functional, organism-based.
In assay [30] the test system is Phytophthora infestans. Put plainly: Antifungal activity Phytophthora infestans. The assay is classed as functional, organism-based.
For assay [31], the target named is Prostaglandin G/H synthase 2 (Homo sapiens, UniProt P35354). Kind of assay: Inhibition of COX2 (unknown origin) by EIA.
Chain of Prostaglandin G/H synthase 2 (P35354 whole entry): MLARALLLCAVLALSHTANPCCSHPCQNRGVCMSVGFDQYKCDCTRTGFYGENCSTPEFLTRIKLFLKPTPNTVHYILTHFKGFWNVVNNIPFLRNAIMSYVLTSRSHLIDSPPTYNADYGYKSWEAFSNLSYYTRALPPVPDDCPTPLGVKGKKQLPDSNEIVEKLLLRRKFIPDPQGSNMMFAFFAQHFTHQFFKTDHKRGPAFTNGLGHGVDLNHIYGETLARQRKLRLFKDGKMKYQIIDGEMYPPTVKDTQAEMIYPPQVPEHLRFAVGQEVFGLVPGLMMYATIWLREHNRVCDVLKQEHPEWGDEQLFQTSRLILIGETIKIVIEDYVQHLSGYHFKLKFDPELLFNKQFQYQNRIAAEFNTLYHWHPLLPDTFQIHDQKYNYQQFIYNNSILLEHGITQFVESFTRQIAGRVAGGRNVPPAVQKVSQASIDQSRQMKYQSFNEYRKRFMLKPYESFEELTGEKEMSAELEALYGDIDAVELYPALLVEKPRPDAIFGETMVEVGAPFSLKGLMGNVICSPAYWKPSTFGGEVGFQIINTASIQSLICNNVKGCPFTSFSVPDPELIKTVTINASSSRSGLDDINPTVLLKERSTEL
Assay [32] concerns Rattus norvegicus. Kind of assay: Anti-inflammatory activity against carrageenan-induced Albino Wistar rat paw edema model assessed as inhibition of rat paw edema at 50 mg/kg, po after 5 hrs relative to control. The assay is classed as functional.
For assay [33], the system named is Mycobacterium tuberculosis. Kind of assay: Antitubercular activity against Mycobacterium tuberculosis. The assay is classed as functional.
In assay [34] the target is Large neutral amino acids transporter small subunit 1 (Homo sapiens, UniProt Q01650). Kind of assay: Inhibition of recombinant human LAT1.
Chain of Large neutral amino acids transporter small subunit 1 (Q01650 whole entry): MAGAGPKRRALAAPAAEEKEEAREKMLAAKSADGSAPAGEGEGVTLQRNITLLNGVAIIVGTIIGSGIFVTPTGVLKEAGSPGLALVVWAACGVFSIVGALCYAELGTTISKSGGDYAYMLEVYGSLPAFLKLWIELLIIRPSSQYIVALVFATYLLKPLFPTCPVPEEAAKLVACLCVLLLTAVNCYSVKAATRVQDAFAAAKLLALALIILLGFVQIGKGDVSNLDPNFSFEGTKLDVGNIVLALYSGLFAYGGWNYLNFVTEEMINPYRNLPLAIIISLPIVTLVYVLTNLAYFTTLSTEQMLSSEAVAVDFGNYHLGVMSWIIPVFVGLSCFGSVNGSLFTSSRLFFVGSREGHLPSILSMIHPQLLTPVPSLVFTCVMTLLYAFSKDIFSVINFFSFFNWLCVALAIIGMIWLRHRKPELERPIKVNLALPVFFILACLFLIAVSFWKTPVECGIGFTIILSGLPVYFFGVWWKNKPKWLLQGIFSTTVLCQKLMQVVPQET
The target in assay [35] is Peroxisome proliferator-activated receptor gamma (Homo sapiens, UniProt P37231). Put plainly: Inhibition of PPARgamma (unknown origin).
Chain of Peroxisome proliferator-activated receptor gamma (P37231 whole entry): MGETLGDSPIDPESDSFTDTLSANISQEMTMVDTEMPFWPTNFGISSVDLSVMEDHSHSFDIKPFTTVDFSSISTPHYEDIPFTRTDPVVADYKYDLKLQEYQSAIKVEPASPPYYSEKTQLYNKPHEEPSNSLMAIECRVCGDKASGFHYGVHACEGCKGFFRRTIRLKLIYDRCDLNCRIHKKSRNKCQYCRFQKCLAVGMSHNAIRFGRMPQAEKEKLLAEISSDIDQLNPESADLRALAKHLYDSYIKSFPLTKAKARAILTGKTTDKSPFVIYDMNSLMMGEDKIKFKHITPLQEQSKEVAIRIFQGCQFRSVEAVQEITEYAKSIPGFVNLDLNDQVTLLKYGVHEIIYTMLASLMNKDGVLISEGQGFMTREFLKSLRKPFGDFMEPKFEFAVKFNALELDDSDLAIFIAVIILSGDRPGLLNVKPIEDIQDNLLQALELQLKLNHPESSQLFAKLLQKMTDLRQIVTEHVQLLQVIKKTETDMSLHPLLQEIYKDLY

≈ marks a conversion by molar mass, not a printed value.

Chain of 72 kDa type IV collagenase (P08253 whole entry, the tested form may be a part): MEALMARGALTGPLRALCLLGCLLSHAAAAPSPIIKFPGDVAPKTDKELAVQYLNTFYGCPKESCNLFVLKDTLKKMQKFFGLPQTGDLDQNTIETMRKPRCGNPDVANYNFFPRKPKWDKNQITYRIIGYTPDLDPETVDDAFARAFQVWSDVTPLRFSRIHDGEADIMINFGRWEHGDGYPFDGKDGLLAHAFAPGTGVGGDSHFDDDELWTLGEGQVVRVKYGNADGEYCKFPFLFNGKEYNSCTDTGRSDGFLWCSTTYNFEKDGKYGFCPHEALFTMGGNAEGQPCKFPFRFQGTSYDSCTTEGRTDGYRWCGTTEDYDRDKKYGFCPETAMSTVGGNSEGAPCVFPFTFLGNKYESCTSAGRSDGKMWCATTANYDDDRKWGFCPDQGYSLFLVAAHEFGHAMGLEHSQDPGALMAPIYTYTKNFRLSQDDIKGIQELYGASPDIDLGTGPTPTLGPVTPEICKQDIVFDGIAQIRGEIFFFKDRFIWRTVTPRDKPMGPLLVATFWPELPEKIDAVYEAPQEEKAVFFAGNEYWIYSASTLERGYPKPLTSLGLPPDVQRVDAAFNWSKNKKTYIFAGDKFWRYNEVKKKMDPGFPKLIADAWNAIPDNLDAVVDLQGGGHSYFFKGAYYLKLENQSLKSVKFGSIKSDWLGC

In the case of `O=C(O)c1sc(-c2ccc(Cl)cc2)cc1C1C=C(c2ccccc2)c2c1ncn1c(-c3ccc(Cl)cc3)nnc21` (configuration not stated), the GI50 came out at 0.03 µM in assay [1], 0.02 µM in [2] and 0.05 µM in [3].
On to NYSTATIN, for which the IC50 in assay [4], in assay [5], in assay [6], in assay [7] and in assay [8] was 7.3 µM in each case.
Regarding `C=CCNc1nc(C)c(C2=NN(C(N)=S)[C@H](c3ccc(Cl)cc3)C2)s1`, in assay [9], the MIC is 0.12 µg/mL (≈ 0.306 µM).
Molecule `O=C(Nc1nc(=S)ss1)c1ccc(Cl)cc1` came in with an MIC in assay [10] of 0.5 µg/mL (≈ 1.73 µM).
For `O=C(N[C@H](CO)[C@H](O)c1ccc([N+](=O)[O-])cc1)C(Cl)Cl` [CHLORAMPHENICOL], the IC50 in assay [4] (Bacillus subtilis), in assay [5] (Candida albicans), in [6] (Staphylococcus aureus), in assay [7] (Pseudomonas aeruginosa) and in [8] (Escherichia coli) was 22.5 µM in each case.
Regarding `N#Cc1c(-c2ccc(N3CCOCC3)cc2)csc1NC(=O)CN1CCOCC1`, the inhibition in vivo at 50 mg/kg in assay [11] came out at 58.5%.
On to `N#Cc1c(/N=C/c2cc3cc(Br)ccc3[nH]2)sc2c1CCCCC2`, for which, in assay [12], the “Ratio IC50” value was 3.51. In assay [13], this molecule registered an IC50 of 14.9 µM.
As to `COc1ccc2c(c1)c(CC(=O)O)c(C)n2C(=O)c1ccc(Cl)cc1` [INDOMETHACIN], the inhibition in vivo at 10 mg/kg in assay [14] came to 47.7%.
On to `Cc1ccc(Nc2nc(N(C)C)c(C#N)s2)cc1C`, for which the IC50 was 34.3 to 34.8 µM in [15] and 34.8 µM in assay [16].
`COc1ccc([C@H]2c3sc(=O)[nH]c3SC[C@H]2C=O)cc1` displayed a half-maximal effective concentration (EC50) in assay [17] of 0.07 µM.
GENTAMICIN came in with an MIC in assay [18] of 0.03 µg/mL.
In the case of `COc1ccc(C2SCC(=O)N2c2ccc3nc(Cc4ccc(O)cc4)c(=O)[nH]c3c2)cc1` (configuration not stated), the half-inhibitory concentration (IC50) in assay [19] was 19.6 µM.
Molecule `COc1ccc(-c2csc(NC(=O)CSc3nnc(-c4ccc(Br)cc4)c(-c4ccc(Br)cc4)n3)n2)cc1` returned an IC50 in assay [20] of 2.85 µM.
`S=c1ssnc1-c1ccccc1` came in with an EC50 in assay [21] of 0.023 µM.
With `COc1ccc2nc3cc(Cl)ccc3c(Nc3sc4c(c3C#N)CCC4)c2c1`, in assay [22], the concentration for half-maximal inhibition (IC50) amounted to 9.6 µM.
Turning to `O=C1O[C@H]([C@@H](O)CO)C(O)=C1O` [ASCORBIC ACID], the half-maximal inhibitory concentration (IC50) in [19] amounted to 16.9 µM.
In turn, `O=S(=O)(CC1CS1)c1ccc(-n2cc(-c3ccc(-c4ccncc4)cc3)nn2)cc1` (configuration not stated) had a 50% inhibitory concentration (IC50) in assay [23] of 0.62 µM.
In the case of `CC1(C)S[C@@H]2[C@H](NC(=O)[C@H](N)c3ccccc3)C(=O)N2[C@H]1C(=O)O` [AMPICILLIN], in assay [9], the MIC stood at 0.03 µg/mL (≈ 0.0859 µM).
For `O=C(CC1SC(=O)NC1=O)Oc1ccc(/C=C2/SC(=O)NC2=O)cc1Br` (configuration not stated), the MIC in assay [24] amounted to 7.81 µg/mL (≈ 17.1 µM); in [25], 3.91 µg/mL (≈ 8.55 µM); in [26] it was 3.91 µg/mL (≈ 8.55 µM).
`N#Cc1ccccc1-c1nnc(-c2ccc(/C=C3\SC(=O)NC3=O)cc2)o1` returned a concentration for 50% growth inhibition (GI50) in assay [27] of 0.004 µM.
`N#Cc1ccc(/N=N/c2ccc(/C=C3\SC(=O)NC3=O)c(/N=N/c3ccc(C#N)cc3)c2O)cc1`: in assay [28], the Activity stood at 60%.
As to `O=C(c1cccc(Br)c1)N1CCC(c2cc(-c3snc(Cl)c3Cl)ns2)CC1`, the figures for the EC50 in assay [29] and in assay [30] were 0.046 µg/mL (≈ 0.0914 µM) and 0.27 µg/mL (≈ 0.536 µM), respectively.
As to `COc1ccc(-c2nn(-c3ccc(S(C)(=O)=O)cc3)cc2/C=C2\SC(=O)NC2=O)cc1`, in [31], the half-maximal inhibitory concentration (IC50) is 0.88 µM. Also, the inhibition in vivo at 50 mg/kg in assay [32] was 80.2%.
Molecule `Fc1ccc(-c2cn(Cc3csc(-c4ccccc4)n3)nn2)cc1` came in with an MIC in [33] of 8.99 µg/mL (≈ 26.7 µM).
`COc1cccc2c1C(=O)c1c(O)c3c(c(O)c1C2=O)C[C@@](O)(C(=O)CO)C[C@@H]3O[C@H]1C[C@H](N)[C@H](O)[C@H](C)O1` [DOXORUBICIN]: the values for the half-inhibitory concentration (IC50) in [15] and in assay [16] were 42.4 µM and 45.9 µM, respectively. Moreover, the values for the GI50 in assay [1], in assay [2] and in assay [3] were 0.05 µM, 0.04 µM and 0.09 µM, respectively.
As to `FC(F)(F)Oc1ccc(/N=c2\ssnc2Cl)nc1`, in assay [34], the IC50 worked out at 0.98 µM.
As for `CCCCNC(=O)CN1C(=O)S/C(=C/c2ccc(Cl)cc2)C1=O`, in assay [35], the midpoint of the response, the EC50, lay at 5.9 µM.

The values are drawn from ChEMBL document CHEMBL4406816, “Role of sulphur-heterocycles in medicinal chemistry: An update” (Eur J Med Chem, 2019).
